For 18 compounds, T/C results are on record in PubChem BioAssay AID192 (DTP/NCI, 2004).

Where “and” joins values, the source holds several entries; their conditions need not be identical. Identical values can stand only once. Toxic doses and inconclusive results are not listed.

The test deals with BDF1 mice, B16 melanoma ip, median survival T/C. Nature of the test: NCI In Vivo Anticancer Drug Screen. Data for tumor model B16 Melanoma (intraperitoneal) in B6D2F1 (BDF1) mice. The conditions noted are these: endpoint: median survival time, higher = longer survival. Put shortly:
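Mice with transplantable tumors; drug vs vehicle groups; endpoint survival or tumor size; value = T/C.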

Where [1] appears, read: dose: 25.0 mg/kg/injection, schedule: Q01DX009 (ip), vehicle: saline with Tween-80.
[2] abbreviates: dose: 50.0 mg/kg/injection, schedule: Q01DX009 (ip), vehicle: saline with Tween-80.
The mark [3] stands for this setting: dose: 0.5 mg/kg/injection, schedule: Q01DX009 (ip), vehicle: saline with Tween-80.
[4] abbreviates: dose: 1.0 mg/kg/injection, schedule: Q01DX009 (ip), vehicle: saline with Tween-80.
The mark [5] stands for this setting: dose: 2.0 mg/kg/injection, schedule: Q01DX009 (ip), vehicle: saline with Tween-80.
Where [6] appears, read: dose: 3.12 mg/kg/injection, schedule: Q01DX009 (ip), vehicle: saline.
Where [7] appears, read: dose: 6.25 mg/kg/injection, schedule: Q01DX009 (ip), vehicle: saline.
Where [8] appears, read: dose: 25.0 mg/kg/injection, schedule: Q01DX009 (ip), vehicle: saline.
The mark [9] stands for this setting: dose: 50.0 mg/kg/injection, schedule: Q01DX009 (ip), vehicle: saline.
Where [10] appears, read: dose: 100.0 mg/kg/injection, schedule: Q01DX009 (ip), vehicle: saline.

Consider `O=NN(CCF)C(=O)NC1C(O)CCCC1O` (stereo unspecified), for which the T/C (dose: 1.88 mg/kg/injection, schedule: Q01DX001 (ip), vehicle: saline) is 121 % of control; the T/C (dose: 7.5 mg/kg/injection, schedule: Q01DX001 (ip), vehicle: saline) was 199 % of control; the T/C (dose: 15.0 mg/kg/injection, schedule: Q01DX001 (ip), vehicle: saline) was 212 % of control; the T/C (dose: 30.0 mg/kg/injection, schedule: Q01DX001 (ip), vehicle: saline) was 263 % of control; the T/C (dose: 60.0 mg/kg/injection, schedule: Q01DX001 (ip), vehicle: saline) was 226 % of control.

With `O=C(CC(=O)C(F)(F)F)c1csc2ccccc12`, the T/C is, setting by setting: (dose: 12.5 mg/kg/injection, schedule: Q01DX009 (ip), vehicle: saline with Tween-80) 102 % of control; under setting [1], 97 % of control; under setting [2], 114 % of control.

Consider `COc1cccc2c1C(=O)c1c(O)c3c(c(O)c1C2=O)C[C@@](O)(C(=O)COC(=O)Cc1cccc2ccccc12)C[C@@H]3OC1CC(N)C(O)C(C)O1` (stereo partly specified), for which the T/C under setting [3] is 169 % of control; the T/C under setting [4] was 150 % of control and 227 % of control; the T/C under setting [5] is 169 % of control and 238 % of control; the T/C (dose: 4.0 mg/kg/injection, schedule: Q01DX009 (ip), vehicle: saline with Tween-80) was 192 % of control and 284 % of control.

Regarding `NC(=S)SCCC(=O)O`, the T/C reads like this: (dose: 100.0 mg/kg/injection, schedule: Q01DX009 (ip), vehicle: Klucel (hydroxypropylcellulose) (HPC)) 96 % of control; (dose: 200.0 mg/kg/injection, schedule: Q01DX009 (ip), vehicle: Klucel (hydroxypropylcellulose) (HPC)) 86 % of control.

For `C=CCCC(=O)CCCC(=O)O[C@@H]1[C@@H]2[C@H](CC1(C)C)[C@H](O)[C@@]13O[C@@H]1[C@H](O)[C@@]1(CO1)[C@@]23C`, the T/C runs as follows: (dose: 6.2 micrograms/kg/injection, schedule: Q01DX009 (ip), vehicle: saline) 98 % of control; (dose: 6.3 micrograms/kg/injection, schedule: Q01DX009 (ip), vehicle: Klucel (hydroxypropylcellulose) (HPC)) 107 % of control; (dose: 12.5 micrograms/kg/injection, schedule: Q01DX009 (ip), vehicle: Klucel (hydroxypropylcellulose) (HPC)) 121 % of control; (dose: 12.5 micrograms/kg/injection, schedule: Q01DX009 (ip), vehicle: saline) 97 % of control; (dose: 25.0 micrograms/kg/injection, schedule: Q01DX009 (ip), vehicle: saline) 106 % of control; (dose: 50.0 micrograms/kg/injection, schedule: Q01DX009 (ip), vehicle: Klucel (hydroxypropylcellulose) (HPC)) 91 % of control. Also, where the note is “dose: 50.0 micrograms/kg/injection, schedule: Q01DX009 (ip), vehicle: saline”, the T/C is 102 % of control.

Turning to `c1ccc(-c2csc3c4ccccc4c4ccccc4[n+]23)cc1`, the T/C under setting [3] is 95 % of control, the T/C under setting [4] is 95 % of control and the T/C under setting [5] is 93 % of control.

Consider `CC(=O)C(O)N1C(=O)C=CC1=O` (stereo unspecified), for which the T/C is, setting by setting: (dose: 0.32 mg/kg/injection, schedule: Q01DX009 (ip), vehicle: saline with Tween-80) 100 % of control; (dose: 0.63 mg/kg/injection, schedule: Q01DX009 (ip), vehicle: saline with Tween-80) 108 % of control; (dose: 1.25 mg/kg/injection, schedule: Q01DX009 (ip), vehicle: saline with Tween-80) 111 % of control; (dose: 2.5 mg/kg/injection, schedule: Q01DX009 (ip), vehicle: saline with Tween-80) 105 % of control; (dose: 5.0 mg/kg/injection, schedule: Q01DX009 (ip), vehicle: saline with Tween-80) 105 % of control.

With `C=C(C)C12OC3(c4ccccc4)OC1C1C4OC4(CO)C(O)C4(O)C(=O)C(C)=CC4C1(O3)C(C)C2OC(=O)/C=C/C=C/c1ccccc1` (stereo unspecified), the T/C is 107 % of control (dose: 6.3 micrograms/kg/injection, schedule: Q01DX009 (ip), vehicle: saline with Tween-80); 96 % of control (dose: 12.5 micrograms/kg/injection, schedule: Q01DX009 (ip), vehicle: saline with Tween-80); 90 % of control (dose: 25.0 micrograms/kg/injection, schedule: Q01DX009 (ip), vehicle: alcohol); 96 % of control (dose: 25.0 micrograms/kg/injection, schedule: Q01DX009 (ip), vehicle: saline with Tween-80); 91 % of control (dose: 50.0 micrograms/kg/injection, schedule: Q01DX009 (ip), vehicle: alcohol); 96 % of control (dose: 50.0 micrograms/kg/injection, schedule: Q01DX009 (ip), vehicle: saline with Tween-80). Also, the T/C (dose: 100.0 micrograms/kg/injection, schedule: Q01DX009 (ip), vehicle: alcohol) was 88 % of control and the T/C (dose: 100.0 micrograms/kg/injection, schedule: Q01DX009 (ip), vehicle: saline with Tween-80) was 96 % of control.

Consider `CC(C(=O)N1c2ccccc2Sc2ccccc21)[N+]1(C)CCCC1` (stereo unspecified), for which the T/C is 93 % of control under setting [6]; 93 % of control under setting [7]; 95 % of control (dose: 12.5 mg/kg/injection, schedule: Q01DX009 (ip), vehicle: saline); 91 % of control under setting [8]; 100 % of control under setting [9].

Regarding `Cc1c(N=CN(C)C)c(=O)n(-c2ccccc2)n1C`, the T/C is, setting by setting: (dose: 97.0 mg/kg/injection, schedule: Q04DX003 (ip), vehicle: Klucel (hydroxypropylcellulose) (HPC)) 97 % of control; (dose: 187.5 mg/kg/injection, schedule: Q04DX003 (ip), vehicle: Klucel (hydroxypropylcellulose) (HPC)) 105 % of control; (dose: 375.0 mg/kg/injection, schedule: Q04DX003 (ip), vehicle: Klucel (hydroxypropylcellulose) (HPC)) 87 % of control.

On to `COC(=O)c1cc(C)c(Br)c(N)c1`, for which the T/C is, setting by setting: (dose: 37.5 mg/kg/injection, schedule: Q04DX003 (ip), vehicle: Klucel (hydroxypropylcellulose) (HPC)) 97 % of control; (dose: 75.0 mg/kg/injection, schedule: Q04DX003 (ip), vehicle: Klucel (hydroxypropylcellulose) (HPC)) 92 % of control; (dose: 150.0 mg/kg/injection, schedule: Q04DX003 (ip), vehicle: Klucel (hydroxypropylcellulose) (HPC)) 94 % of control.

Regarding `O=CC(=O)c1ccc(O)cc1`, the T/C is, setting by setting: (dose: 1.56 mg/kg/injection, schedule: Q01DX009 (ip), vehicle: saline) 105 % of control; under setting [6], 97 % of control; under setting [7], 106 % of control.

With `CCC[CH2][Sn]([Cl])([CH2]CCC)[S]C(=S)NCCNC(=S)[S][Sn]([Cl])([CH2]CCC)[CH2]CCC`, the T/C is 94 % of control (dose: 3.12 mg/kg/injection, schedule: Q01DX009 (ip), vehicle: Klucel (hydroxypropylcellulose) (HPC)); 96 % of control (dose: 6.25 mg/kg/injection, schedule: Q01DX009 (ip), vehicle: Klucel (hydroxypropylcellulose) (HPC)); 101 % of control (dose: 12.5 mg/kg/injection, schedule: Q01DX009 (ip), vehicle: Klucel (hydroxypropylcellulose) (HPC)).

With `NC(N)=NOCC[C@@H](N)C(=O)O`, the T/C reads like this: under setting [9], 105 % of control; under setting [10], 101 % of control; (dose: 200.0 mg/kg/injection, schedule: Q01DX009 (ip), vehicle: saline) 100 % of control; (dose: 400.0 mg/kg/injection, schedule: Q01DX009 (ip), vehicle: saline) 99 % of control.

Turning to `Cc1c(Cl)cccc1NC(=O)C(c1ccccc1)c1ccccc1`, the T/C runs as follows: under setting [1], 99 % of control; under setting [2], 86 % of control; (dose: 100.0 mg/kg/injection, schedule: Q01DX009 (ip), vehicle: saline with Tween-80) 91 % of control.

For `COc1cccc2c1C(=O)c1c(O)c3c(c(O)c1C2=O)CC(O)(/C(C)=N/NC(=O)CCCCC(=O)N/N=C(\C)C1(O)Cc2c(O)c4c(c(O)c2C(OC2CC(N)C(O)C(C)O2)C1)C(=O)c1c(OC)cccc1C4=O)CC3OC1CC(N)C(O)C(C)O1` (stereo unspecified), the T/C was 114 % of control (dose: 0.38 mg/kg/injection, schedule: Q01DX009 (ip), vehicle: water); 177 % of control (dose: 1.5 mg/kg/injection, schedule: Q01DX009 (ip), vehicle: water); 295 % of control (dose: 3.0 mg/kg/injection, schedule: Q01DX009 (ip), vehicle: water); 208 % of control (dose: 6.0 mg/kg/injection, schedule: Q01DX009 (ip), vehicle: water).

On to `Nc1nc2c(c(=O)[nH]1)NC(CCNc1ccc(C(=O)NC(CCC(=O)O)C(=O)O)cc1)CN2` (stereo unspecified), for which the T/C is 94 % of control under setting [8], 102 % of control under setting [9] and 110 % of control under setting [10].

Regarding `CCCCCCCCCCCCSC(=O)CCC(=O)O`, the T/C runs as follows: (dose: 50.0 mg/kg/injection, schedule: Q04DX003 (ip), vehicle: Klucel (hydroxypropylcellulose) (HPC)) 108 % of control; (dose: 100.0 mg/kg/injection, schedule: Q04DX003 (ip), vehicle: Klucel (hydroxypropylcellulose) (HPC)) 108 % of control; (dose: 200.0 mg/kg/injection, schedule: Q04DX003 (ip), vehicle: Klucel (hydroxypropylcellulose) (HPC)) 102 % of control.
